Where a name gives a salt, the structure may show the parent alone.
What follows are compounds tested on tactile allodynia in the rat Chung model (assay: Chung model: reversal of tactile allodynia (von Frey hairs) after spinal nerve ligation). Settings: Rattus norvegicus, ip, 0.5 h, 300 μg/kg IP, peak at 30 min post dose, read-out: Peak % Pain reversal: time post dose.
Format: in vivo
Excerpt: An art-accepted model or assay for measuring an analgesic effect of a compound in chronic pain (in particular peripheral neuropathy) is the model known as Kim and Chung 1992, Pain […], pp 355-363 (Chung model). This model involves the surgical ligation of the L5 (and optionally the L6) spinal nerves on one side in experimental animals. Rats recovering from the surgery gain weight and display a level of general activity similar to that of normal rats. However, these rats develop abnormalities of the foot, wherein the hindpaw is moderately everted and the toes are held together. More importantly, the hindpaw on the side affected by the surgery appears to become sensitive to low-threshold mechanical stimuli and will perceive pain instead of the faint sensation of touch. This sensitivity to normally non-painful touch, called “tactile allodynia”, develops within the first week after surgery and lasts for at least two months. The allodynia response includes lifting the affected hindpaw to escape from the stimulus, licking the paw and holding it in the air for many seconds. None of these responses is normally seen in the control group.
To produce the tactile allodynia, rats are anesthetized before surgery. The surgical site is shaved and prepared either with betadine or Novacaine. Incision is made from the thoracic vertebra X111 down toward the sacrum. Muscle tissue is separated from the spinal vertebra (left side) at the L4-S2 levels. The L6 vertebra is located and the transverse process is carefully removed with a small rongeur to expose the L4-L6 spinal nerves. The L5 and L6 spinal nerves are isolated and tightly ligated with 6-0 silk thread. The same procedure is done on the right side as a control, except no ligation of the spinal nerves is performed.
After a complete hemostasis is confirmed, the wounds are sutured. A small amount of antibiotic ointment is applied to the incised area, and the rat is transferred to the recovery plastic cage under a regulated heat-temperature lamp.
On the day of the experiment, at least seven days after the surgery, typically six rats per test group are administered the test drugs by intraperitoneal (i.p.) injection or oral gavage (p.o.). For i.p. administration, the compounds are formulated in H2O and given in a volume of 1 ml/kg body weight by injecting into the intraperitoneal cavity. For p.o. administration, the compounds are formulated in H2O and given in a volume of 1 ml/kg body weight using an 18-gauge, 3 inch gavage needle that is slowly inserted through the esophagus into the stomach.
Tactile allodynia is assessed via von Frey hairs, which are a series of fine hairs with incremental differences in stiffness. Rats are placed in a plastic cage with a wire mesh bottom and allowed to acclimate for approximately 30 minutes. To establish the pre-drug baseline, the von Frey hairs are applied perpendicularly through the mesh to the mid-plantar region of the rats' hindpaw with sufficient force to cause slight buckling and held for 6-8 seconds. The applied force has been calculated to range from 0.41 to 15.1 grams. If the paw is sharply withdrawn, it is considered a positive response. A normal animal will not respond to stimuli in this range, but a surgically ligated paw will be withdrawn in response to a 1-2 gram hair. The 50% paw withdrawal threshold is determined using the method of Dixon, W. J., Ann. Rev. Pharmacol. Toxicol. 20:441-462 (1980) hereby incorporated by reference. Tactile allodynia is measured prior to and 15, 30, and 60 minutes after drug administration. The post-drug threshold is compared to the pre-drug threshold and the percent reversal of tactile sensitivity is calculated based on a normal threshold of 15.1 grams.
Table 1 below indicates the degree of pain reversal obtained in the Chung model with exemplary compounds of the invention. […]

SMILES	inhibition in vivo at 0.3 mg/kg [%]
N[C@@H](C(=O)N1CCCC1)[C@@H](O)c1ccoc1 (racemic) [Compound 27, DL-threo-2-Amino-3-(furan-3-yl)-3-hydroxy-1-(pyrrolidin-1-yl)propan-1-one hydrochloride]	42
O=C(N[C@@H](C(=O)N1CCCC1)[C@@H](O)c1ccncc1)c1ccc(Cl)c(Cl)c1 (racemic) [Compound 57, 3,4-Dichloro-N-(DL-threo-1-Hydroxy-3-oxo-1-(pyridin-4-yl)-3-(pyrrolidin-1-yl)propan-2-yl)benzamide]	51
CCCCCCCN[C@@H](C(=O)N1CCCC1)[C@@H](O)c1ccncc1 (racemic) [Compound 64, DL-threo-3-Hydroxy-2-(heptylamino)-3-(pyridin-4-yl)-1-(pyrrolidin-1-yl)propan-1-one dihydrochloride]	100
O=C([C@H](NC1CCCCC1)[C@@H](O)c1ccncc1)N1CCCC1 (racemic) [Compound 69]	63
N[C@@H](C(=O)N1CCC(F)(F)C1)[C@@H](O)c1ccncc1 (racemic) [Compound 213, (±)-threo-2-Amino-1-(3,3-difluoropyrrolidin-1-yl)-3-hydroxy-3-(pyridin-4-yl)propan-1-one dihydrochloride]	85

Same assay, conditions: Rattus norvegicus, ip, 1 h, 30 μg/kg IP, peak at 60 min post dose, read-out: Peak % Pain reversal: time post dose

SMILES	inhibition in vivo at 0.03 mg/kg [%]
N[C@@H](C(=O)N1CCCC1)[C@@H](O)c1cccnc1 (racemic) [Compound 20, DL-threo-2-Amino-3-hydroxy-3-(pyridin-3-yl)-1-(pyrrolidin-1-yl)propan-1-one dihydrochloride]	92

Same assay, conditions: Rattus norvegicus, ip, 1 h, 100 μg/kg IP, peak at 60 min post dose, read-out: Peak % Pain reversal: time post dose

SMILES	inhibition in vivo at 0.1 mg/kg [%]
N[C@@H](C(=O)N1CCCC1)[C@@H](O)c1ccc[nH]c1=O (racemic) [Compound 49, 3-(DL-threo-2-Amino-1-hydroxy-3-oxo-3-pyrrolidin-1-yl-propyl)-1H-pyridin-2-one hydrochloride]	85

Same assay, conditions: Rattus norvegicus, ip, 1 h, 300 μg/kg IP, peak at 60 min post dose, read-out: Peak % Pain reversal: time post dose

SMILES	inhibition in vivo at 0.3 mg/kg [%]
N[C@@H](C(=O)N1CCCC1)[C@@H](O)c1cccs1 (racemic) [Compound 24, DL-threo-2-Amino-3-hydroxy-1-(pyrrolidin-1-yl)-3-(thiophen-2-yl)propan-1-one hydrochloride]	60
N[C@@H](C(=O)N1CCCC1)[C@@H](O)c1csc2ccccc12 (racemic) [Compound 26, hydrochloride]	92
N[C@@H](C(=O)N1CCCC1)[C@@H](O)c1ccc2ccccc2c1 (racemic) [Compound 28, DL-threo-2-Amino-3-hydroxy-3-(naphthalen-2-yl)-1-(pyrrolidin-1-yl)propan-1-one hydrochloride]	92
N[C@@H](C(=O)N1CCCC1)[C@@H](O)c1cccc2ccccc12 (racemic) [Compound 29, DL-threo-2-Amino-3-hydroxy-3-(naphthalen-1-yl)-1-(pyrrolidin-1-yl)propan-1-one hydrochloride]	47
N[C@@H](C(=O)N1CCCC1)[C@@H](O)c1ccc2ccccc2n1 (racemic) [Compound 30, DL-threo-2-Amino-3-hydroxy-1-(pyrrolidin-1-yl)-3-(quinolin-2-yl)propan-1-one dihydrochloride]	53
N[C@@H](C(=O)N1CC=CC1)[C@@H](O)c1ccnc(Cl)c1 (racemic) [Compound 34, DL-threo-2-Amino-3-(2-chloropyridin-4-yl)-3-hydroxy-1-(2H-pyrrol-1 (5H)-yl)propan-1-one dihydrochloride]	62
N[C@@H](C(=O)N1CCCCC1)[C@@H](O)c1ccncc1 (racemic) [Compound 35, DL-threo-2-Amino-3-hydroxy-3-(pyridin-4-yl)-1-(piperidin-1-yl)propan-1-one dihydrochloride]	92
CCN(CC)C(=O)[C@H](N)[C@@H](O)c1ccncc1 (racemic) [Compound 40, DL-threo-2-Amino-N,N-diethyl-3-hydroxy-3-(pyridin-4-yl)propanamide dihydrochloride]	47
N[C@@H](C(=O)N1CCCC1)[C@@H](O)c1ccnc(Cl)c1 (racemic) [Compound 41, DL-threo-2-Amino-3-(2-chloropyridin-4-yl)-3-hydroxy-1-(pyrrolidin-1-yl)propan-1-one dihydrochloride]	70
N[C@@H](C(=O)N1CCCC1)[C@@H](O)c1ccncc1Cl (racemic) [Compound 43, DL-threo-2-Amino-3-(3-chloropyridin-4-yl)-3-hydroxy-1-(pyrrolidin-1-yl)propan-1-one dihydrochloride]	96
O=C(N[C@@H](C(=O)N1CCCC1)[C@@H](O)c1ccncc1)c1ccccc1 (racemic) [Compound 55, N-(DL-threo-1-Hydroxy-3-oxo-1-(pyridin-4-yl)-3-(pyrrolidin-1-yl)propan-2-yl)benzamide hydrochloride]	58
COc1ccc(C(=O)N[C@@H](C(=O)N2CCCC2)[C@@H](O)c2ccncc2)cc1 (racemic) [Compound 56, N-(DL-threo-1-Hydroxy-3-oxo-1-(pyridin-4-yl)-3-(pyrrolidin-1-yl)propan-2-yl)-4-methoxy-benzamide hydrochloride]	67
O=C(N[C@@H](C(=O)N1CCCC1)[C@@H](O)c1ccncc1)OCc1ccccc1 (racemic) [Compound 58, Benzyl DL-threo-3-hydroxy-1-oxo-3-(pyridin-4-yl)-1-(pyrrolidin-1-yl)propan-2-ylcarbamate hydrochloride]	75
CCCCCCCCCC(=O)N[C@@H](C(=O)N1CCCC1)[C@@H](O)c1ccncc1 (racemic) [Compound 59, N-(DL-threo-3-hydroxy-1-oxo-3-(pyridin-4-yl)-1-(pyrrolidin-1-yl)propan-2-yl)decanamide hydrochloride]	92
CN[C@@H](C(=O)N1CCCC1)[C@@H](O)c1ccncc1 (racemic) [Compound 61, DL-threo-3-Hydroxy-2-(methylamino)-3-(pyridin-4-yl)-1-(pyrrolidin-1-yl)propan-1-one dihydrochloride]	64
COc1ccc(CN[C@@H](C(=O)N2CCCC2)[C@@H](O)c2ccncc2)cc1 (racemic) [Compound 67, DL-threo-2-(4-Methoxybenzylamino)-3-hydroxy-3-(pyridin-4-yl)-1-(pyrrolidin-1-yl)propan-1-one one]	78
N[C@@H](C(=O)N1CCCC1)[C@@H](O)c1ccc(I)cc1 (racemic) [Compound 210, (±)-threo-2-Amino-3-hydroxy-3-hydroxy-3-(4-iodophenyl)-1-(pyrrolidin-1-yl)propan-1-one dihydrochloride]	78
O=CN[C@@H](C(=O)N1CCCC1)[C@@H](O)c1ccncc1 (racemic) [Compound 216, N-((±)-threo-1-hydroxy-3-oxo-1-(pyridin-4-yl)-3-(pyrrolidin-1-yl)propan-2-yl)formamide hydrochloride]	100

Same assay, conditions: Rattus norvegicus, po, 1 h, 30 μg/kg PO, peak at 60 min post dose, read-out: Peak % Pain reversal: time post dose

SMILES	inhibition in vivo at 0.03 mg/kg [%]
N[C@@H](C(=O)N1CCCC1)[C@@H](O)c1ccsc1 (racemic) [Compound 23, DL-threo-2-Amino-3-hydroxy-1-(pyrrolidin-1-yl)-3-(thiophen-3-yl)propan-1-one hydrochloride]	100

Same assay, conditions: Rattus norvegicus, po, 1 h, 300 μg/kg PO, peak at 60 min post dose, read-out: Peak % Pain reversal: time post dose

SMILES	inhibition in vivo at 0.3 mg/kg [%]
O=C([C@H](NCc1ccc(Cl)c(Cl)c1)[C@@H](O)c1ccncc1)N1CCCC1 (racemic) [Compound 68, DL-threo-2-(3,4-Dichlorobenzylamino)-3-hydroxy-3-(pyridin-4-yl)-1-(pyrrolidin-1-yl)propan-1-one dihydrochloride]	94
